The experiment concerns the target T1, gamma-secretase (Homo sapiens, UniProt P49768, M146L).
T1 construct: expressed in transfected cells; host or cells: CHO-K1 clone 30-12, co-expressing CT100 of APP and PS1 M146L
Put plainly: β-amyloid cellular test: inhibition of production of β-amyloid (β-A4) peptide, ELISA of cell supernatants. The format is cell-based. The settings on record: line CHO-K1 co-expressing the CT100 of APP and PS1 M146L clone 30-12; incubated 24-25 hours; secreted amyloid peptide by ELISA; read-out: EC50 (50% effective concentration), inhibition of production of the β-amyloid (β-A4) peptide. From the text: For the β-amyloid cellular test, the line CHO-K1 co-expressing the CT100 of APP and PS1 M146L clone 30-12 is used. The line targets the inhibition of gamma-secretase. […]
The amount of bound peptide is detected indirectly in the presence of a competitor corresponding to the truncated peptide, the biotin-coupled peptide 1-28, which is then detected with alkaline phosphatase-coupled streptavidin. The substrate, p-nitrophenyl phosphate (pNPP FAST p-Nitrophenyl Phosphate, Sigma N2770) gives a yellow soluble reaction product that can be read at 405 nm. […] After incubation for 30 minutes at room temperature, the reaction is quenched by adding 100 μl per well of 0.1M EDTA and the reading is taken at 405 nm.
Background: An ELISA detects its analyte on a solid surface through an enzyme-linked reagent.

These results are taken from US7582664B2, “Acylaminothiazole derivatives, preparation method thereof and use of same in therapeutics” (Sanofi-Aventis, priority 2004, dated 2009).

Turning to `CCC[C@H](NC(=O)Cc1cc(F)cc(F)c1)C(=O)Nc1nc(C(=O)OC)c(-c2ccccc2Oc2ccc(F)cc2)s1` [Compound 13, Methyl 2-{2-(S)-[2-(3,5-difluorophenyl)acetylamino]-pentanoyl}amino-5-[2-(4-fluorophenoxy)phenyl]thiazole-4-carboxylate], the EC50 came to 6 nM.
